Reference: patent US11413315B2, “Neural stem cell-mediated cancer treatment” (priority 2018, dated 2022)

Tests used:
OVCAR8.EGFP.ffluc cells = test: In vitro synergy experiment, Chou-Talalay analysis; format: cell-based, human; conditions: cisplatin <1 μM
Procedure: Tumor cells were plated at 3×10^3 cells per well in 96-well plates. Select wells also received NSC.CRAd-Survivin-pk7 at either a 1:1, 1:10, or 1:100 ratio. […] Cultures were incubated for 3 more days. Upon collection, media were replaced with that containing D-luciferin ([…]), and after a 10-min incubation, the resulting luminescent signal was quantified using a SpectraMax M3 microplate reader (Molecular Devices, CA, USA). Results are expressed as the percentage of surviving cells determined by comparing the luciferase signal of each sample relative to untreated control samples considered 100% viable. […] Each condition was replicated in quadruplet, and the experiment was conducted twice.

[1] = test system: OVCAR8.EGFP flank xenografts; test: Subcutaneous flank OVCAR8 xenograft model; format: in vivo, mouse
Procedure: Female athymic nude mice 6-8 weeks of age (Charles River) were maintained under specific pathogen-free conditions at the COH Animal Resource Center, and all procedures were reviewed and approved by the COH Animal Care Committee. A subcutaneous flank xenograft model in nude mice was established using an EGFP and firefly luciferase-expressing ovarian cancer cell line, 2×10^6 OVCAR8.EGFP.ffluc. […] The mice were treated for […] with 1 week off in between each cycle. […] Tumor burden was evaluated via caliper measurements twice weekly over a 5-week period.
Mice began treatments approximately 2 weeks after injection of 5 million OVCAR8.EGFP cells, when the tumors were on average 0.5 cm in diameter (Table 3). The mice were treated for two cycles. Each cycle was 2 weeks long, consisting of 1 week on therapy and 1 week off. Tumor burden was evaluated via caliper measurements twice weekly over a 5-week period.

OVCAR8 peritoneal tumors = test: PCR biodistribution of NSCs and virus in peritoneal tumors with or without cisplatin; format: in vivo; conditions: 2 days after administration, three tumors per mouse
Procedure: Female NOD-SCID mice (Jackson Labs) that were 6-8 weeks old were inoculated with 2 million OVCAR8.eGFP.ffluc cells via i.p. injection. After 3 weeks, mice (n=3) were administered i.p. 2×10^6 Dil-labeled NSC-CRAd-Survivin-pk7. Two days after NSC injection, tumors were harvested. Three tumors per mouse were digested using proteinase K, DNA was extracted (DNA Extraction from fixed tissues kit, Puragene), quantified using a nanodrop, then amplified by PCR using primers for v-Myc and hexon to test for the presence of NSCs and viral particles respectively. GAPDH was used as a loading control (351 bp). DNA purified from unmodified NSCs and NSC-CRAd-Survivin-pk7 was used as a positive control for PCR amplification of the v-Myc gene (replicon size 170 bp), and hexon (179 bp) respectively. Pure water was used as a negative control. PCR products were analyzed by agarose gel electrophoresis and staining of DNA bands with ethidium bromide. […] Sections (10 μm thick) were collected on positively charged slides (Thermo Fisher Scientific), immunostained for hexon (Goat Anti-Adenovirus FITC Conjugated Polyclonal Antibody, AB1056F, Millipore), counterstained with DAPI (1 ug/mL, Sigma), then imaged using the Zeiss Axio Observer Z1 fluorescence microscope (ZEISS Microscopy). […]

[2] = test system: survivin expression in OVCAR8 cell line; test: RT-PCR analysis of survivin expression after cisplatin, OVCAR8; format: cell-based, human; conditions: up to 2 days of cisplatin exposure; data not shown
[3] = test system: survivin expression in SKOV3 cell line; test: RT-PCR analysis of survivin expression after cisplatin, SKOV3; format: cell-based, human; conditions: up to 2 days of cisplatin exposure; data not shown

Q: `N.N.[Cl][Pt][Cl]` [cisplatin] was tested. Which “effect of low doses of cisplatin on OVCAR8 tumor cells” value (OVCAR8.EGFP.ffluc cells) did it give?
A: Its value is “unaffected”.

Q: What about the “tumor volume doubling time after the first treatment” value ([1]; control 7 days) of the same compound?
A: Its value is 13 days.

Q: What about the “tumor volume doubling time after the second treatment” value ([1]; control 15 days) of the same compound?
A: The value was “not significantly different from that of the saline control”.

Q: And the “hexon DNA detected in tumors (virus)” value (OVCAR8 peritoneal tumors)?
A: Its value is “Neither hexon nor v-myc DNA was detected”.

Q: What about the “v-myc DNA detected in tumors (NSCs)” value (OVCAR8 peritoneal tumors) of the same compound?
A: The value was “Neither hexon nor v-myc DNA was detected”.

Q: What about the “survivin expression after cisplatin exposure” value [2] of the same compound?
A: The value was “did not significantly increase”.

Q: What about the “survivin expression after cisplatin exposure” value [3] of the same compound?
A: The value was “did not significantly increase”.
